pIC50: −log10 of the molar value.
Target: HSET full length protein (Homo sapiens (Human), UniProt Q9BW19)
Assay: HSET ADP-Glo Assay S - 3 μM ATP
Assay type: biochemical
Details: 5 nM HSET, 70 μg/mL microtubule, 80 min at rt, read-out: COMBINED HSET ADP GLO IC50
Outline: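 ADP-Glo luminescence read-out: ATPase reaction at 3 μM ATP, 80 min at room temperature, after a 10 min compound preincubation. Enzyme was full-length human HSET at 5 nM, stimulated by 70 μg/mL paclitaxel-stabilised bovine microtubules in HEPES pH 6.8 buffer with MgCl2, EGTA, Triton X-100 and DTT.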

Sequence of HSET full length protein (Q9BW19 whole entry): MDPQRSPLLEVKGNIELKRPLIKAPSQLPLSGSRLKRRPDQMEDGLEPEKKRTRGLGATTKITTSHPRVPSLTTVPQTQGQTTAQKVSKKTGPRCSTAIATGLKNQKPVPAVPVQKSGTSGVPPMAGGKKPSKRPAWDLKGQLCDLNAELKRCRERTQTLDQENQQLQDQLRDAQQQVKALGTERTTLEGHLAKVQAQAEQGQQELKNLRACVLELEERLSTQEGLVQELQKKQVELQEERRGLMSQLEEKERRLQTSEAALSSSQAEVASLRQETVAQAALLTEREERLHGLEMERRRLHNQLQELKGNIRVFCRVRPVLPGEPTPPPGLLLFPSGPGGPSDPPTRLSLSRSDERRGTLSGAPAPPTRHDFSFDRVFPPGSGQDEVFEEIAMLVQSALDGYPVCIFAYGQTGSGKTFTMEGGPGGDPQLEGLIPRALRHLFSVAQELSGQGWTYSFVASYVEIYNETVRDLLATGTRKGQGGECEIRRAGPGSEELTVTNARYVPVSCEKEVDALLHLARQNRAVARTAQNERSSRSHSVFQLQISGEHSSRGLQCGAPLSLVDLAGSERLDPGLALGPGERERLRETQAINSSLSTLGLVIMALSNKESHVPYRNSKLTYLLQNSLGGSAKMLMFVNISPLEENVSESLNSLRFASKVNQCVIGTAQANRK

SMILES	pIC50
Cc1nc(-c2ccc3ccnc(N[C@H]4CCN(C(=O)c5cc(C6CC6)n(C)n5)C4)c3c2)no1 [Example 247, (S)-(5-cyclopropyl-1-methyl-1 H-pyrazol-3-yl)(3-((7-(5-methyl-1,2,4-oxadiazol-3-yl)isoquinolin-1-yl)amino)pyrrolidin-1-yl)methanone]	4.87
Cc1nc(-c2ccc3ccnc(N[C@H]4CCN(C(=O)c5cc(-c6ccccc6)n(C)n5)C4)c3c2)no1 [Example 248, (S)-(3-((7-(5-methyl-1,2,4-oxadiazol-3-yl)isoquinolin-1-yl)amino)pyrrolidin-1-yl)(1-methyl-5-phenyl-1 H-pyrazol-3-yl)methanone]	5.38
Cc1nc(-c2ccc3ccnc(N[C@H]4CCN(C(=O)c5cc(C(C)C)n(C)n5)C4)c3c2)no1 [Example 249, (S)-(5-isopropyl-1-methyl-1 H-pyrazol-3-yl)(3-((7-(5-methyl-1,2,4-oxadiazol-3-yl)isoquinolin-1-yl)amino)pyrrolidin-1-yl)methanone]	4.84
Cc1nc(-c2ccc3ccnc(N[C@H]4CCN(C(=O)c5cnc[nH]5)C4)c3c2)no1 [Example 250, (S)-(1 H-imidazol-5-yl)(3-((7-(5-methyl-1,2,4-oxadiazol-3-yl)isoquinolin-1-yl)amino)pyrrolidin-1-yl)methanone]	5.02
Cc1cc(C(=O)N2CC[C@H](Nc3nccc4ccc(-c5noc(C)n5)cc34)C2)no1 [Example 251, (5-Methylisoxazol-3-yl)-[(3S)-3-[[7-(5-methyl-1,2,4-oxadiazol-3-yl)-1-isoquinolyl]amino]pyrrolidin-1-yl]methanone]	5.25
Cc1nc(-c2ccc3ccnc(N[C@H]4CCN(C(=O)c5cc(C(C)C)[nH]n5)C4)c3c2)no1 [Example 253, (S)-(5-isopropyl-1 H-pyrazol-3-yl)(3-((7-(5-methyl-1,2,4-oxadiazol-3-yl)isoquinolin-1-yl)amino)pyrrolidin-1-yl)methanone]	5.47
Cc1nc(-c2ccc3ccnc(N[C@H]4CCN(C(=O)c5cc(C(C)(C)C)[nH]n5)C4)c3c2)no1 [Example 254, (S)-(5-(tert-butyl)-1 H-pyrazol-3-yl)(3-((7-(5-methyl-1,2,4-oxadiazol-3-yl)isoquinolin-1-yl)amino)pyrrolidin-1-yl)methanone]	5.21
CCCOC(=O)n1cc(NC(=O)CCNc2nccc3ccc(-c4noc(C)n4)cc23)nc1C [Example 257, Propyl 2-methyl-4-(3-{[7-(5-methyl-1,2,4-oxadiazol-3-yl)isoquinolin-1-yl]amino}propanamido)-1 H-imidazole-1-carboxylate]	7.33
Cc1nc(-c2ccc3ccnc(NCCC(=O)Nc4cn(C(=O)OC(C)C)c(C)n4)c3c2)no1 [Example 258, Propan-2-yl 2-methyl-4-(3-{[7-(5-methyl-1,2,4-oxadiazol-3-yl)isoquinolin-1-yl]amino}propanamido)-1 H-imidazole-1-carboxylate]	6.68
CCOC(=O)n1cc(NC(=O)CCNc2nccc3ccc(-c4noc(C)n4)cc23)nc1C [Example 259, Ethyl 2-methyl-4-(3-{[7-(5-methyl-1,2,4-oxadiazol-3-yl)isoquinolin-1-yl]amino}propanamido)-1 H-imidazole-1-carboxylate]	6.27
CCCOC(=O)n1cnc(NC(=O)CCNc2nccc3ccc(-c4noc(C)n4)cc23)c1 [Example 260, Propyl 4-(3-{[7-(5-methyl-1,2,4-oxadiazol-3-yl)isoquinolin-1-yl]amino}propanamido)-1 H-imidazole-1-carboxylate]	6.85
CCOC(=O)n1cc(NC(=O)CCNc2nccc3ccc(-c4cnn(C)c4)cc23)nc1C [Example 261, Ethyl 2-methyl-4-(3-{[7-(1-methyl-1 H-pyrazol-4-yl)isoquinolin-1-yl]amino}propanamido)-1 H-imidazole-1-carboxylate]	4.89
CCCOC(=O)n1cc(NC(=O)CCNc2nccc3ccc(-c4cnn(C)c4)cc23)nc1C [Example 262, Propyl 2-methyl-4-(3-{[7-(1-methyl-1 H-pyrazol-4-yl)isoquinolin-1-yl]amino}propanamido)-1 H-imidazole-1-carboxylate]	6.00
CCCOC(=O)n1cc(NC(=O)CCNC(=O)c2cccc(-c3noc(C)n3)c2)nc1C [Example 263]	6.70
CCCOC(=O)n1cnc(NC(=O)CCNC(=O)c2cccc(-c3noc(C)n3)c2)c1 [Example 266, Propyl 4-(3-{[3-(5-methyl-1,2,4-oxadiazol-3-yl)phenyl]formamido}-propanamido)-1 H-imidazole-1-carboxylate]	5.47
CCCOC(=O)n1cc(NC(=O)[C@H](O)CNC(=O)c2cccc(-c3cnn(C)c3)c2)nc1C [Example 268]	6.02
Cc1nc(NC(=O)[C@@H](O)CNC(=O)c2cccc(-c3cnn(C)c3)c2)cn1C(=O)OC(C)C [Example 269]	6.04
Cc1nc(NC(=O)[C@H](O)CNC(=O)c2cccc(-c3cnn(C)c3)c2)cn1C(=O)OC(C)C [Example 270]	5.29
Cc1nc(-c2ccc3ccnc(NCCC(=O)Nc4cnn(C(=O)OC(C)(C)C)c4)c3c2)no1 [Example 272, tert-Butyl 4-(3-{[7-(5-methyl-1,2,4-oxadiazol-3-yl)isoquinolin-1-yl]amino}propanamido)-1 H-pyrazole-1-carboxylate]	6.80

Now from value to compound:

pIC50	SMILES
5.76	Cc1nc(-c2ccc3ccnc(N[C@H]4CCN(C(=O)c5nc(C)c(C(C)(C)C)s5)C4)c3c2)no1 [Example 246, (S)-(5-(tert-butyl)-4-methylthiazol-2-yl)(3-((7-(5-methyl-1,2,4-oxadiazol-3-yl)isoquinolin-1-yl)amino)pyrrolidin-1-yl)methanone]
4.78	Cc1nc(-c2ccc3ccnc(N[C@H]4CCN(C(=O)c5cnn(C(C)(C)C)c5)C4)c3c2)no1 [Example 252, (1-tert-Butylpyrazol-4-yl)-[(3S)-3-[[7-(5-methyl-1,2,4-oxadiazol-3-yl)-1-isoquinolyl]amino]pyrrolidin-1-yl]methanone]
7.57	CCCOC(=O)c1sc(C(=O)N2CC[C@@H](Nc3nccc4ccc(-c5noc(C)n5)cc34)[C@@H]2C)nc1C [Example 255, Propyl 4-methyl-2-((2S,3R)-2-methyl-3-((7-(5-methyl-1,2,4-oxadiazol-3-yl)isoquinolin-1-yl)amino)pyrrolidine-1-carbonyl)thiazole-5-carboxylate]
7.70	CCCOC(=O)c1sc(C(=O)N2C[C@@H](F)[C@H](Nc3nccc4ccc(-c5noc(C)n5)cc34)C2)nc1C [Example 256, propyl 2-((3R,4R)-3-fluoro-4-((7-(5-methyl-1,2,4-oxadiazol-3-yl)isoquinolin-1-yl)amino)pyrrolidine-1-carbonyl)-4-methylthiazole-5-carboxylate]
6.55	Cc1nc(-c2cccc(C(=O)NCCC(=O)Nc3cn(C(=O)OC(C)C)c(C)n3)c2)no1 [Example 264]
5.65	CCOC(=O)n1cc(NC(=O)CCNC(=O)c2cccc(-c3noc(C)n3)c2)nc1C [Example 265]
6.42	CCCOC(=O)n1cc(NC(=O)[C@@H](O)CNC(=O)c2cccc(-c3cnn(C)c3)c2)nc1C [Example 267]
5.40	CCOC(=O)n1cc(NC(=O)[C@@H](O)CNC(=O)c2cccc(-c3cnn(C)c3)c2)nc1C [Example 271]

Source: patent US20250084074A1, “SUBSTITUTED HETEROCYCLES AS HSET INHIBITORS” (MERCK PATENT GMBH, priority 2022, published 2025)
